Measured values reported in patent US11840545B1, “Spirooxindole-copper complex as novel efficient anticorrosion agent for C-steel” (KING FAISAL UNIVERSITY, priority 2023, dated 2023).

Assays:
[1] = Impedance study of corrosion inhibition, equivalent circuit model CPE with Diffusion; details: for IE: impedance, C-steel, 1M HCl, 298 K; for % inhibition from Impedance: summary Table 16, C-steel in 1 M HCl; for % Inhibition from Impedance studies: summary Table 17, C-steel in 1 M HCl
Source text: (§1) In an embodiment, the thus formed CuL copper complex can undergo anticorrosion studies by adding the obtained CuL copper complex to hydrochloric acid (for example, at 1M) using a C-steel electrode.
(§2) The % inhibition of Spiro compounds SP34, SP37 and SP311 and their copper complexes for C-steel in hydrochloric acid solution (1M) were computed by Impedance and Polarization studies. The model used for the electrochemical equivalent circuit to fit the impedance for anticorrosion studies of Carbon steel (C-steel) by Spiro inhibitors was CPE with diffusion as shown in FIG. 7.

[2] = Polarization (Tafel) study of corrosion inhibition; details: for IE: polarization, C-steel, 1M HCl, 298 K; for % inhibition from Tafel: summary Table 16, C-steel in 1 M HCl; for % Inhibition from Tafel plots: summary Table 18, C-steel in 1 M HCl
Source text: as §1, §2

Compound `Cc1[nH]nnc1C(=O)[C@H]1[C@H](c2ccc(Cl)cc2Cl)C2CSCN2[C@]12C(=O)Nc1cc(Cl)ccc12` (stereo partly drawn) [SP 34, (3R,6'S,7′R)-6-chloro-7′-(2,4-dichlorophenyl)-6′-(5-methyl-1H-1,2,3-triazole-4-carbonyl)-1′,6′,7′,7a′-tetrahydro-3′H-spiro[indoline-3,5′-pyrrolo[1,2-c]thiazol]-2-one] has an IE ([1]; 0.037 mM) of 82.48%, an IE ([1]; 0.075 mM) of 94.25% and an IE ([1]; 0.112 mM) of 97.37%. The “% inhibition from Impedance” value [1] was 96.97%, the “% Inhibition from Impedance studies” value [1] was 96.97% and the IE ([2]; 0.037 mM) was 90.5%. The IE ([2]; 0.075 mM) was 97.1%, the IE ([2]; 0.112 mM) was 98.6% and the “% inhibition from Tafel” value [2] was 98.6%. The “% Inhibition from Tafel plots” value [2] was 98.6%.
For `Cc1[nH]nnc1C(=O)[C@H]1[C@H](c2cccc([N+](=O)[O-])c2)C2CSCN2[C@]12C(=O)Nc1cc(Cl)ccc12` (stereo partly drawn) [SP 37, (3R,6'S,7′R)-6-chloro-6′-(5-methyl-1H-1,2,3-triazole-4-carbonyl)-7′-(3-nitrophenyl)-1′,6′,7′,7a′-tetrahydro-3′H-spiro[indoline-3,5′-pyrrolo[1,2-c]thiazol]-2-one], the IE ([1]; 0.039 mM) was 21.25%, the IE ([1]; 0.078 mM) was 46.85% and the IE ([1]; 0.117 mM) was 56.53%. For the same compound, the “% inhibition from Impedance” value [1] was 56.53%, the “% Inhibition from Impedance studies” value [1] was 56.53% and the IE ([2]; 0.039 mM) was 49.0%. For the same compound, the IE ([2]; 0.078 mM) was 72.7%, the IE ([2]; 0.117 mM) was 82.1% and the “% inhibition from Tafel” value [2] was 82.1%. For the same compound, the “% Inhibition from Tafel plots” value [2] was 82.1%.
For `Cc1[nH]nnc1C(=O)[C@H]1[C@H](c2cccc(Br)c2)C2CSCN2[C@]12C(=O)Nc1cc(Cl)ccc12` (stereo partly drawn) [SP 311, (3R,6'S,7′R)-7′-(3-bromophenyl)-6-chloro-6′-(5-methyl-1H-1,2,3-triazole-4-carbonyl)-1′,6′,7′,7a′-tetrahydro-3′H-spiro[indoline-3,5′-pyrrolo[1,2-c]thiazol]-2-one], the IE ([1]; 0.036 mM) was 14.26%, the IE ([1]; 0.073 mM) was 8.96% and the IE ([1]; 0.109 mM) was 62.89%. The “% inhibition from Impedance” value [1] was 62.89%, the “% Inhibition from Impedance studies” value [1] was 62.89% and the IE ([2]; 0.036 mM) was −1.5%. The IE ([2]; 0.073 mM) was 13.0%, the IE ([2]; 0.109 mM) was 81.6% and the “% inhibition from Tafel” value [2] was 81.6%. The “% Inhibition from Tafel plots” value [2] was 81.6%.
